Paper PMC8248052 (Chembiochem, 2021)

Target: T1, SMYD3 (Homo sapiens, UniProt Q9H7B4)
T1 sequence (Q9H7B4 1-428): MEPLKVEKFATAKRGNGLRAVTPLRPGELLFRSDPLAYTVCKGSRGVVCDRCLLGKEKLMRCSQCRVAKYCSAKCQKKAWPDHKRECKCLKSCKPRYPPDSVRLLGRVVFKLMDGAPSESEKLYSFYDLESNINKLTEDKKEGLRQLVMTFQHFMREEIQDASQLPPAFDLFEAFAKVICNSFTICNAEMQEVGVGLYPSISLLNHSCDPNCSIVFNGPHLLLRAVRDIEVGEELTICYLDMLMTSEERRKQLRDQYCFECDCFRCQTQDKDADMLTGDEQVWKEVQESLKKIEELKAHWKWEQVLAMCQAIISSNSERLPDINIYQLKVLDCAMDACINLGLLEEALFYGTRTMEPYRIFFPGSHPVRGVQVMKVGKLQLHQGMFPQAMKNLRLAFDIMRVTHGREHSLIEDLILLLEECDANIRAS
Assay: LC-MS methyltransferase assay, MAP3K2 […]-274 peptide, inhibition at […]
Assay type: biochemical
Details: 0.63 µM

Inhibition [%]: 52.8±1.7
Structure (SMILES): O=C1Cc2cc(C(=O)NC3C[C@H]4CC[C@@H](C3)N4S(=O)(=O)CC3CCN(CCCC(F)(F)F)CC3)c(Cl)cc2N1 (stereo partly shown) [EPZ031686]
